Assay results reported in patent EP0266890A1, “Imidazopyridine derivatives, their production, and pharmaceutical compositions containing them” (YAMANOUCHI PHARMACEUTICAL CO. LTD., priority 1986, dated 1988).

System: not listed separately
Test: in vivo
Parameters: species or system Fischer-rats
Details: rat, po
Description: That is, LD50(p.o.) of the compound was higher than 1,000 mg/kg.

SMILES | LD50 at 24 h
CC(C)=CCOc1cccn2c(CC#N)c(C)nc12 [Example 16, 3-Cyanomethyl-2-methyl-8-[(3-methyl-2-butenyl)-oxy]imidazo[1,2-a]pyridine] | > 1000 mg/kg

System: Gastric Acid Secretion
Test: Histamine-stimulated gastric acid secretion in Heidenhain pouch dogs
Format: in vivo, beagle dogs
Details: histamine s.c. 1 hour after drug administration
Description: Six male beagle dogs (13 to 17kg) with well-established Heidenhain pouches were used for the construction of gastric acid secretion response curves. Food was withheld but water allowed for 18 hours before each experiment. Histamine (60 Mg/kg/hr) was administered subcutaneously 1 hour after drug administration. The pouch secretion was allowed to drain into a collection vessel which was changed every 15 minutes. Gastric juice volume was recorded, and acid concentration was determined by titration with 0.05N NaOH up to pH 7.0 using an automatic titrator (Hiranuma Sangyo Co., COMTITE-7).

SMILES | Gastric Acid Secretion Inhibitory Rate (%) Pouch Dog 3 mg/kg p.o.
Cc1nc2c(OCC3CCCCC3)cccn2c1CC#N [Example 11, 3-cyanomethyl-8-cyclohexylmethoxy-2-methylimidazo-[1,2-a]-pyridine] | 67%
CCCCCOc1cccn2c(CC#N)c(C)nc12 [Example 12, 3-Cyanomethyl-2-methyl-8-pentyloxyimidazo-[1,2-a]pyridine] | 61%
CC(C)=CCOc1cccn2c(CC#N)c(C)nc12 [Example 16, 3-Cyanomethyl-2-methyl-8-[(3-methyl-2-butenyl)-oxy]imidazo[1,2-a]pyridine] | 82%
Cc1nc2c(OCc3ccccc3)cccn2c1CC#N [Known compound A, reference compound] | 36%
C=CCOc1cccn2c(CC#N)c(C)nc12 [Known compound B, reference compound] | 21%
